{"source": "patent US6316644A", "about": "“Pilyethoxylated retinamide derivatives and process for preparing the same” (LG Chemical Ltd., priority 1998, dated 2001)", "key": {"human fibroblasts": {"system": "human fibroblasts", "assay": "Test for collagen synthesis (tritiated proline, CSP)", "method": "The same count of human fibroblasts was incubated in each well of 24-well plate for 24 hours and then the test sample was applied thereto at the concentration of 10^-4 to 10^-7 w %/ml. After 2 hours, tritiated proline (L-2,3-^3 H proline) was applied to the plate and then further incubated for 24 hours. The amount of collagen as newly synthesized and secreted by fibroblasts utilizing the culture medium was measured by calculating the amount of CPS (collagenous sensitive protein) on the basis of cpm (counting per minute) number of L-2,3-^3 H proline."}, "auricular lymph node": {"system": "auricular lymph node", "conditions": "mouse, in vivo", "method": "Toxicol. 10(3); 173-180]. […] Each of the test sample was applied to both ears of Blab/c mouse in an amount of 50μl for 3 days and then auricular lymph node was isolated from mouse. Lymph node was micronized to monocellular state and then incubated for 24 hours with addition of radioisotope (^3 H-thymidine)."}, "skin": {"system": "skin", "conditions": "guinea pig, in vivo", "method": "Assoc. Food and Drug Officials, US. Appraisal of the safety of chemicals in Food, Drugs and Cosmetics, pp46-59, Texas State Dept. of Health, Austin, Tex. and 2 Federal Register (1973): Method of testing primary irritant substances 38(187): pp1500-1541]. Six kinds of the test solutions were prepared at the concentration of 0.3% by using o/w formulation or Lexol GT-865 as the carrier vehicle. First, hair was removed from the portion (dorsal skin of mouse) for applying the test solution and then the naked portion was adapted to the environmental circumstance for 24 hours in order to minimize the skin irritability. The test solution and gauze were applied to the established portion (1.5 cm×1.5 cm) for applying the test solution, which was then sealed with the solid thin film and fixed with the elastic bandage for 48 hours in order to inhibit the evaporation and loss of the test sample. After 2 and 24 hours from removal of the closed patch (i. e. 50 and 72 hours after patch application, respectively), the degree of irritation was determined."}, "[1]": {"conditions": "pH 7.4", "description": "The tests for identification of pharmacological activities of the compound of formula (I) according to the present invention were conducted as follows. First, the test for percutaneous absorption was carried out by cutting off the dorsal skin from 8-weeks aged female mouse, applying the test sample (35 mM) to the skin and then analysing the percutaneous absorption of the test sample by means of an apparatus for measuring percutaneous absorption (Franz cell) and HPLC.\nSpecifically, the dorsal skin of 8-weeks aged female mouse (naked mouse) was cut off and then 35 ml solution of the test sample was applied in an amount of 250 μl to the skin having a size of 1.7cm^2. Using the apparatus for measuring percutaneous absorption (Franz cell), after 24 hours, the absorbed materials were extracted respectively from 7 ml of the receptor solution [50 mM PBS buffer solution (pH=7.4) containing 2% VolPO20 Polyethylene oleyl ether (HLB=16)] and the skin and then quantitatively analyzed by high pressure liquid chromatography (HPLC)."}, "skin photoaging": {"system": "skin photoaging", "conditions": "cited from earlier work"}, "[2]": {"conditions": "lipid-soluble; cited from earlier work"}, "[3]": {"system": "skin of 9-weeks aged naked female mouse", "assay": "Test for organ incubation of skin (MTT assay)", "description": "(§1) The test for organ incubation of skin was carried out by MTT assay method using naked female mouse."}, "[4]": {"system": "skin of 9-weeks aged naked female mouse", "description": "as §1"}, "[5]": {"conditions": "relative to retinoic acid; FASEB J., 10, 1014-1024, 1996; cited from earlier work"}, "V79-4 cells": {"system": "V79-4 cells", "assay": "Cytotoxicity test (MTT assay)", "assay_type": "cell-based, Chinese hamster", "conditions": "FIG. 2", "description": "The cytotoxicity test was carried out by MTT assay method using V79-4 cells."}, "[6]": {"conditions": "0.3% in Lexol GT-865, MTT assay"}}, "note": "Where two headings read alike, the source gives them in different places."}
{"compound": "CC1=C(/C=C/C(C)=C/C=C/C(C)=C/C(=O)O)C(C)(C)CCC1", "note": "[Retinoic acid, all-trans-retinoic acid]", "values": [{"measurement": "activation at 1e-06 w %/ml", "setting": "human fibroblasts; Homo sapiens, Fibroblast, read-out: increase in collagen synthesis", "value": "≤ 21.7", "unit": "%"}, {"measurement": "allergy induction in comparison to ethanol", "setting": "auricular lymph node", "value": "six times or more"}, {"measurement": "difference between the irritation degrees", "setting": "skin", "value": "no significant difference"}, {"measurement": "Receptor solution (amount absorbed)", "setting": "[1]", "value": 11.40, "unit": "nmol"}, {"measurement": "skin photoaging", "setting": "skin photoaging; cream preparation applied to skin, JAMA 259, 1988", "value": "can be improved"}, {"measurement": "skin absorption", "setting": "[2]", "value": "low skin absorption"}, {"measurement": "irritation", "setting": "[3]; 0.3%", "value": "strong irritation"}, {"measurement": "Degree of irritation", "setting": "[3]; [6]", "value": 0.11}, {"measurement": "Safety", "setting": "[3]; [6]", "value": "strong irritation"}]}
{"compound": "CCCCCCCCCCCCCCCC(=O)OC/C=C(C)/C=C/C=C(C)/C=C/C1=C(C)CCCC1(C)C", "note": "[Retinol palmitate, retinol palmitate]", "values": [{"measurement": "effect of increasing collagen synthesis", "setting": "human fibroblasts; 10^-4 to 10^-7 w %/ml, FIG. 1", "value": "does substantially not exhibit an effect of increasing collagen synthesis"}, {"measurement": "allergy induction in comparison to ethanol", "setting": "auricular lymph node", "value": "six times or more"}, {"measurement": "difference between the irritation degrees", "setting": "skin", "value": "no significant difference"}, {"measurement": "Receptor solution (amount absorbed)", "setting": "[1]", "value": 0.48, "unit": "nmol"}, {"measurement": "Degree of irritation", "setting": "[4]", "value": 0.34}, {"measurement": "Safety", "setting": "[4]", "value": "minute irritation"}, {"measurement": "irritation", "setting": "[4]", "value": "weak irritation"}]}
{"compound": "CC1=C(/C=C/C(C)=C/C=C/C(C)=C/C(=O)O[C@@H]2O[C@H](C(=O)O)[C@@H](O)[C@H](O)[C@H]2O)C(C)(C)CCC1", "note": "[retinoyl β-glucuronide (RAG), retinoyl β-glucuronide]", "values": [{"measurement": "toxicity", "setting": "[5]", "value": "relatively reduced toxicity"}]}
{"compound": "polyethoxylated retinamide of formula (I) (R=methyl, n=9.8)", "values": [{"measurement": "effect of increasing collagen synthesis at cytotoxic concentration", "setting": "human fibroblasts; 10^-3 w %/ml or more", "value": "does not exhibit any increasing effect"}, {"measurement": "increase in collagen synthesis (highest effect)", "setting": "human fibroblasts; 10^-7 w %/ml", "value": 33.8, "unit": "%"}, {"measurement": "concentration at which effect of increasing collagen synthesis begins", "setting": "human fibroblasts; limiting concentration at which any toxicity is not caused", "value": "below 10^-4 w %/ml"}, {"measurement": "cytotoxicity", "setting": "V79-4 cells; 10^-3 w %/ml or more", "value": "exhibits gradually"}, {"measurement": "cytotoxicity", "setting": "V79-4 cells; 10^-4 w %/ml and below", "value": "only a weak toxicity"}]}
{"compound": "CC1=C(/C=C/C(C)=C/C=C/C(C)=C/CO)C(C)(C)CCC1", "note": "[Retinol, retinol]", "values": [{"measurement": "Receptor solution (amount absorbed)", "setting": "[1]", "value": 11.48, "unit": "nmol"}]}
{"compound": "COc1ccc(C(C)=O)c(OC(=O)/C=C(C)/C=C/C=C(C)/C=C/C2=C(C)CCCC2(C)C)c1", "note": "[2-(all-trans-retinoyloxy)-4-methoxyacetophenone]", "values": [{"measurement": "inhibition of skin cancer and photoaging", "setting": "skin photoaging; U.S. Pat. No. 4,677,120", "value": "exhibits an effect of inhibiting skin cancer and photoaging"}]}
{"compound": "CCCCCCCCCCCCOS(=O)(=O)[O-].[Na+]", "note": "[Sodium lauryl sulfate]", "values": [{"measurement": "Safety", "setting": "[3]; control group, <0.05%", "value": "minute irritation"}, {"measurement": "Safety", "setting": "[3]; control group, <0.25%", "value": "moderate irritation"}, {"measurement": "Safety", "setting": "[3]; control group, <0.5%", "value": "strong irritation"}]}
{"compound": "CC1=C(/C=C/C(C)=C/C=C/C(C)=C/C(=O)Nc2ccc(O)cc2)C(C)(C)CCC1", "note": "[N-(4-hydroxy-phenyl)retinamide (4-HPR), N-(4-hydroxy-phenyl)retinamide]", "values": [{"measurement": "toxicity", "setting": "[5]", "value": "relatively reduced toxicity"}]}
